Reference: patent US12582720B2, “Compound for preventing or treating lipid metabolism-related diseases” (Fudan University, priority 2020, dated 2026)
“Also recorded” adds a separate entry of the source.

Legend:
[1] = tested on: lipid droplets in human normal liver cell line QSG7701; test: Endogenous lipid droplets in human normal liver cell line QSG7701; type: cell-based; details: QSG7701, no induction, 5 μM, 24 h
Experimental: 10% FBS+90% RPMI 1640 culture medium was used for cultivation, cell incubator culture condition of 37° C. and 5% CO2 was used. Cells were plated as 50 thousands/well (12 well plate was plated with aseptic treated slides). When cells grew to a confluence of 80-90%, the compound (Compound 1A or Compound 2A, at a concentration of 5 μM) was added for treatment, and LC3 binding Compound A1, A5, lipid droplet probe Sudan IV as well as DMSO acted as a control. […]. In the compounds of present disclosure, LC3 binding moiety was covalently linked with lipid droplet binding moiety, and thus could achieve the effect of reducing liver cell endogenous lipid droplet.

[2] = tested on: lipid droplets in SH-SY5Y cells; test: Lipid droplets in SH-SY5Y cells in the presence of autophagy inhibitor NH4Cl; type: cell-based, human; details: with NH4Cl 5 mM, 24 h
Experimental: By a method similar to Example 4, but after 6 hours from OA induction of lipid droplets, while the test compound was added into cells, autophagy inhibitor ammonium chloride (NH4Cl, final concentration of 5 mM) was added simultaneously. After continuous treatment for 24 hours, the lipid droplets were stained. […] Therefore, the compound of present disclosure reduced lipid droplets by targeting autophagy of cells.

[3] = tested on: lipid droplets in SH-SY5Y cells; test: Reduction of OA-induced lipid droplets in SH-SY5Y cells; type: cell-based, human; details: for amount of lipid droplet: 1.58 μM-50 μM; for amount of lipid droplet / size of lipid droplet: 24 h; for size of lipid droplet: 5 μM-50 μM; for lipid droplet levels: concentrations as indicated in FIG. 18, 24 h
From the text: The reduction of lipid droplets in SH-SY5Y cells by Compound 1A and Compound 2A was detected by a method that was similar to Example 2, and the result was shown in FIG. 18.
The effects of unconjugated LC3 binding Compound A1, A5 and unconjugated lipid droplet probe ORBB […] respectively on lipid droplets in SH-SY5Y cells (FIG. 20A) and MEF cells (FIG. 20B) were detected by a method similar to Example 2.

[4] = tested on: lipid droplets in 3T3-L1 fat precursor cell differentiated fat cells; test: Lipid droplets in 3T3-L1 fat precursor cell differentiated fat cells; type: cell-based, mouse; details: 3T3-L1 differentiated fat cells, 24 h; for effect of the compound on lipid droplets under the treatment of NH4Cl: 5 μM + NH4Cl 5 mM; for amount of lipid droplets / size of lipid droplets: 5 μM
[5] = tested on: lipid droplets in autophagy-deficient MEF cells (Atg5−/−); test: Lipid droplets in autophagy-deficient MEF cells (Atg5-/-); type: cell-based, mouse; details: 5 μM, 24 h
Experimental: Wild type MEF cells and autophagy-deficient MEF cells (Atg5−/−) were cultured in a DMEM culture medium containing 10% FBS. Cells were plated according to the method as described above (12 well plate was plated with aseptic treated slides). When cells grew to a confluence of 60-70%, lipid droplets were induced with OA for 30 h according to the method as described above. At the time point of 6th hour after initiation of induction, OA induced lipid droplets for 30 h, and the cells were treated (treated for 24 hours) with Compound 1A or Compound 2A according to the method as described above. […] The control wells were replaced with DMSO (treated with DMSO). […] After 26 hours of OA induction for lipid droplets, the culture medium of DMSO treated cells was replaced with EBSS, and starved for 4 hours to induce autophagy, and a slight reduction on lipid droplets was observed relative to cells without starvation treatment. Therefore, lipid droplets can be degraded via cell autophagy. The compound of present disclosure could promote the degradation of lipid droplets via cell autophagy.

[6] = tested on: autophagosome-lipid droplet colocalization in MEF cells; test: Colocalization of autophagosome and lipid droplets in mCherry-LC3B transfected MEF cells; type: cell-based, mouse; details: 5 μM, 3 h, compared to DMSO control
Experimental: (1) In MEF cells, mCherry-LC3B was expressed by cDNA plasmid transfection.
(2) OA was added to the culture medium 30 hours after transfection to induce lipid droplets.
(3) Compounds were added to treat cells 6 hours after induction.
(4) 3 hours after compounds addition, cells were fixed and BODIPY stained.
(5) The coverslips laid in the multi-well plates were removed, and imaged with the Zeiss 880 confocal microscope after mounted to observe the aggregation of LC3 puncta around the lipid droplets.
In MEF cells, mCherry-LC3B was expressed by cDNA plasmid transfection. At 30th hour of overexpression, OA was added into cells for lipid droplet induction. 6 hours later, the compound was added for 3 hours' treatment, and then cells were subjected to immunostaining. […] Lipid droplets (green) were stained with BODIPY stain, and nucleus were indicated with DAPI stain. […] In FIG. 24, the colocalized autophagosome-lipid droplet was marked with circles.

LC3B = LC3B (Homo sapiens, UniProt Q9GZQ8); test: MST detection of affinity activity with LC3B; type: binding; parameters: His8 (with TEV site) (N); made in house; host or cells: Escherichia coli BL21(DE3)pLysS; details: MST; read-out: Kd (μM), equilibrium dissociation constant between the conjugated compound and LC3B
Experimental: The recombinant GST-LC3B proteins were prepared and purified, dialyzed into 1×PBS, and then labelled with the red fluorophore with the protein labeling kit RED-NHS (Nanotemper, cat. no. L001).
The MST experiments were performed using the Monolith NT.115 instrument (NanoTemper Technologies). The reaction buffer contains 20 mM HEPES, pH 7.4, 150 mM NaCl, and the protein concentration was 500 nM. The MST data were collected under 40% infrared laser power and 20% light-emitting diode power. The data were analyzed by Nanotemper software.

[7] = tested on: lipid droplets in LC3B knockout HEK293T cells; test: Lipid droplets in LC3B knockout HEK293T cells; type: cell-based, human; details: 5 μM
Experimental: The effect of conjugated compounds (Compound 1A, Compound 2A, Compound 3A or Compound 4A at a concentration of 5 μM) on lipid droplets in LC3B knockout HEK293T cells was tested by a method similar to Example 2.

[8] = tested on: lipid droplets in wild type MEF cells; test: Reduction of OA-induced lipid droplets in wild type MEF cells (BODIPY 493/503 staining); type: cell-based, mouse; details: wild type MEF, 24 h; for lipid droplets: 1.5 μM or 5 μM; for amount of lipid droplets / size of lipid droplets: OA-induced
Experimental: (5) OA-BSA stock solution was prepared into OA-BSA working solution (50× final concentration, 200 μM), and 40 μl of OA-BSA working solution was added to each well to induce lipid droplets. For the non-OA induction group, 40 μl of 10% BSA solution was added to the control well, and the amount of BSA was the same as that of the experimental group.
Compounds were formulated into DMSO stock solutions. Stock compounds were diluted with DMSO into the indicated concentrations of working solutions prior to use in the treatment of cells. After induction of the lipid droplets with OA for the indicated time, the test compounds were added to the cells respectively. Control wells were replaced with the equal volume of DMSO. Unless otherwise stated, the compounds were diluted into 10× solutions using the culture medium and added to the culture medium for 24 hours of incubation. Cells were treated with compounds in a 37° C. incubator with 5% CO2.
(3) The original medium in the multi-well plates was removed, washed and the cells was fixed, 1 ml of the BODIPY solution prepared in (1) was added to each well, and stained for 15 minutes. The staining solution was aspirated and washed with 1×PBS.
(5) The coverslips laid in the multi-well plates were removed, and imaged with the Zeiss 880 confocal microscope after mounted, and analyzed the size and number of lipid droplets with ImageJ.
Wild type MEF cells were cultured in a DMEM culture medium containing 10% FBS. Cells were plated according to the method as described above (12 well plate was plated with aseptic treated slides). When cells grew to a confluence of 60-70%, lipid droplets were induced with OA for 30 h according to the method as described above.
At the time point of 6th hour after initiation of induction, the cells were treated (treated for 24 hours) with Compound 1A or Compound 2A (compound concentrations were 50 μM, 15.8 μM, 5 μM, 1.58 μM, 0.5 μM, 0.158 μM) according to the method as described above.

wild type MEF cells = test: Integrity of nuclear membrane, cell membrane and mitochondria in MEF cells; type: cell-based, mouse; details: 5 μM, 24 h
Experimental: Cells were blocked in 4% BSA+0.1% Triton X-100 in 1×PBS for 30 min and incubated overnight at 4° C. with primary antibody goat polyclonal Lamin B1 (1:200, Santa Cruz Biotechnology, cat. no. sc-6216, RRID: AB_648156), washed with blocking buffer, and incubated with secondary antibody (1:500, Alexa Flour488 donkey anti-goat, Jackson immunoResearch Lab, cat.no. 705-547-003, RRID: AB_2340431) at room temperature for 1 hour. The samples were washed three times and stained with DAPI for 10 min at room temperature.
MitoTracker staining and CellMask staining were performed the same as LysoTracker staining, except using MitoTracker™ Green FM (500 nM, Thermo Fisher, cat. no. M7514) staining for 3 hours to detect total mitochondria; MitoTracker™ Red CMXRos. (500 nM, Thermo Fisher, cat. no. M7512) staining for 3 hours to detect healthy mitochondria; and CellMask™ (2000×, CellMask™ Plasma Membrane Stains, Thermo Fisher, cat. no. C10046) staining for 5 minutes at 37° C.
Wild type MEF cells were treated with conjugated compound (Compound 1A, Compound 2A, Compound 3A or Compound 4A at a concentration of 5 μM) according to a method similar to Example 2. […]

[9] = tested on: lipid droplets in wild type MEF cells; test: Reduction of OA-induced lipid droplets in wild type MEF cells (BODIPY 493/503 staining); type: cell-based, mouse

Row | Compound | endogenous lipid droplets (amount) [1] | lipid droplets [2] | amount of lipid droplet [3] | size of lipid droplet [3] | lipid droplet levels [3] | effect of the compound on lipid droplets under the treatment of NH4Cl [4] | amount of lipid droplets [4] | size of lipid droplets [4] | lipid droplets [5] | ratio of colocalization of red and green aggregation point (autophagosome-lipid droplet) [6] | Kd (LC3B) | reduction of lipid droplets induced by conjugated compounds after knockout of LC3B gene [7] | lipid droplets [8] | amount of lipid droplets ([8]; 0.5 μM-50 μM) | size of lipid droplets ([8]; 5 μM-50 μM) | amount of lipid droplets ([8]; 1.58 μM-50 μM) | size of lipid droplets ([8]; 1.58 μM-50 μM) | integrity of nuclear membrane, cell membrane, mitochondrion membrane (wild type MEF cells) | lipid droplets ([9]; DMSO treated cells, 5 mM NH4Cl, 24 h, relative to cells not treated with NH4Cl) | amount or size of lipid droplets ([9]; wild type MEF, autophagy blocker NH4Cl)
1 | 3-(3,5-dibromo-4-hydroxylbenzylidene)-5-iodo-1-(10-((1-((E)-(4-((E)-phenyldiazenyl)phenyl)diazenyl)naphthalen-2-yl)oxy)decyl)indol-2-one [Compound 1A] | significantly reduce; also recorded: could reduce | does not change; also recorded: did not reduce | significantly reduce | significantly reduce | significantly reduces | blocked | could reduce | could change | does not change; also recorded: ineffective | significantly increased | 3.56 µM | largely blocked | significantly reduced | significantly reduced | significantly reduced |  |  |  |  | 
2 | Cc1ccccc1/N=N/c1ccc(/N=N/c2c(OCCCCCCCCCCOc3cc(O)cc4oc(=O)cc(-c5ccccc5)c34)ccc3ccccc23)c(C)c1 [Compound 2A, 7-hydroxy-5-((10-((1-((E)-(2-methyl-4-((E)-o-methylphenyldiazenyl)phenyl)diazenyl)naphthalen-2-yl)oxy)decyl)oxy)-4-phenyl-2H-chromen-2-one] | significantly reduce; also recorded: could reduce | does not change; also recorded: did not reduce | significantly reduce | significantly reduce | significantly reduces | blocked | could reduce | could change | does not change; also recorded: ineffective | significantly increased | 5.37 µM | largely blocked | significantly reduced |  |  | significantly reduced | significantly reduced |  |  | 
3 | Cc1ccccc1/N=N/c1ccc(/N=N/c2c(OCCCCCCCCCCOc3cc(O)c4c(-c5ccccc5)cc(=O)oc4c3)ccc3ccccc23)c(C)c1 [Compound 2] |  |  |  |  |  |  |  |  |  |  |  |  |  |  |  |  |  | Did not Affect |  | 
4 | Cl.N [NH4Cl, ammonium chloride] |  |  |  |  |  |  |  |  |  |  |  |  |  |  |  |  |  |  | slight increase | slightly increased
